Test system: Rhizoctonia solani
Test: Soybean seed treatment test in soil contaminated by Rhizoctonia solani (disease control efficacy)
Type: in vivo, Rhizoctonia solani on soybean (variety: Natto shoryu)
Conditions: carboxamide compound alone, 0.2 g/100 kg of seeds; soybean seed application; cultivated 20 days in soil contaminated by Rhizoctonia solani; efficacy vs non-treated plot
Procedure: A cyclohexanone solution (100microL) containing prescribed amount (weight) of a test compound was applied on seeds of soybean (variety : Natto shoryu) (10 g) by using a rotary apparatus for seed treatment (Seed dresser, manufactured by Hans-Ulrich Hege GmbH).
One day after the application, plastic pot was filled with soil contaminated by Rhizoctonia solani, and the seeds treated with the test compounds were seeded in the soil and cultivated in a glass-greenhouse for 20 days (hereinafter referred to as “treated plot”).
Thereafter, the presence of disease caused by Rhizoctonia solani in the young plants which germinated from each seed was observed and disease severity was calculated according to the following calculation formula (1).
On the other hand, seeds of soybean which were not treated as above were cultivated in the same way as above (hereinafter referred to as “non-treated plot”) and the disease severity in “non-treated plot” was calculated in the same way as the above “treated plot”. On the basis of the above severity of disease in “treated plot” and “non-treated plot”, efficacy in the “treated plot” was evaluated according to the following calculation formula (2).
Calculation formula (1): Disease severity (%)=(number of infected young plants/total number of young plants)×100 […]

Compound | efficacy (%)
Cc1nn(C)c(C)c1C(=O)Nc1cccc2c1C(C)CC2(C)C (centres unmarked) [carboxamide compound (5)] | 21.1
CC1CC(C)(C)c2cccc(NC(=O)c3cn(C)nc3C(F)F)c21 (centres unmarked) [carboxamide compound (1)] | 42.1

— US8691812B2, “Pesticidal composition and its use” (Sumitomo Chemical Company, Limited, priority 2010, dated 2014)
